# From paper PMC4710668, “Bioactivation of food genotoxicants 5-hydroxymethylfurfural and furfuryl alcohol by sulfotransferases from human, mouse and rat: a comparative study” (Archives of Toxicology, 2014)
# Tests used:
# Experiment in all cases: HMF sulfoconjugation assay
# Assay type in all cases: biochemical
# mSult1a1 = target: T1, mSult1a1 (Mus musculus, UniProt P52840)
# T1 construct: made in house; host or cells: Salmonella typhimurium TA1538 (cytosolic fraction, enzyme not purified)
# Procedure: (§1) Cytosolic fractions containing individual SULT forms were prepared from transgenic S. typhimurium TA1538. Table S1 in the Supplementary Material provides a summary of the thirty SULTs used in the current study together with references describing the cloning of the respective S. typhimurium TA1538 strains. The expressed SULT forms are denoted with the prefixes h, m and r for human, mouse and rat enzymes, respectively. Bacteria were grown in Luria Broth medium containing ampicillin (100 µg/ml) by stirring for 8 h at 200 revolutions/min at 37 °C. The bacterial suspensions were centrifuged at 5,000 g for 10 min. The sediments were washed twice with 25 ml of 10 mM potassium phosphate buffer (pH 7.4)/50 mM potassium chloride (KCP buffer) and centrifuged again. The pellets were taken up in 800 µl KCP buffer and sonicated thrice for 15 s with 30 s pauses in between. The soluble fraction was attained by centrifuging for 1 h at 100,000 g. The supernatants (in the following termed cytosolic preparations) were frozen at −80 °C. The protein concentrations were determined according to a bicinchoninic acid (BCA) assay protocol. The SULT concentrations in the cytosolic preparations were estimated after electrophoretic separation and immunodetection using inclusion bodies of different SULT forms as standards (Teubner et al. [2007]). The preparation of SULT inclusion bodies and the immunodetection of SULTs is described in the Supplementary Material, which also contains a representative immunoblot of different amounts of rSult1a1standard and a cytosolic preparation of S. typhimurium expressing rSult1a1 (Fig. S1).
# (§2) The reactions were conducted in mixtures of 100 µl containing 25–200 µg protein, 50 mM potassium phosphate buffer (pH 7.4), 5 mM MgCl2, 50 µM PAPS and different concentrations of HMF at 37 °C. Preliminary experiments ensured that measurements were recorded under ‘linear’ conditions, i.e., doubling of protein concentration or incubation time was doubling the amount of sulfate ester formed. The reactions were stopped after 30 min by adding 300 µl ice-cold 2-propanol, mixed and centrifuged at 15,000 g for 10 min.
# (§3) SMF concentrations of the clear supernatants were analyzed by UPLC-MS/MS. The protocol was adapted from the quantification of SMF in plasma samples of HMF-treated mice (Monien et al. [2009]). In short, the supernatants were analyzed using a UPLC system (Waters) connected to a Quattro Premier XE tandem quadrupole mass spectrometer (Waters) using the negative electrospray ionization mode. Samples of 4 µl were injected into a HSS T3 column (1.8 µm, 2.1 × 100 mm; Waters) and eluted with an isocratic flow of 0.35 ml/min 10 mM ammonium acetate/methanol (95:5). The fragmentation reactions of SMF yielding two principal ions, the sulfate ion radical (m/z = 204.9 → 96.0) and the protonated sulfonate ion (m/z = 204.9 → 81.0) were monitored. The tune parameters were as follows: temperature of the electrospray source 120 °C; desolvation temperature 475 °C; desolvation gas nitrogen (800 l/h); cone gas nitrogen (100 l/h); collision gas argon (indicated cell pressure ~5 × 10^−3 mbar). For the fragmentation of SMF, collision energies were 20 and 23 eV for the transitions m/z = 204.9 → 81.0 and m/z = 204.9 → 96.0, respectively. The dwell time was set to 100 ms, and capillary voltage was set to 0.35 kV. The cone and RF1 lens voltages were 32 and 0.2 V, respectively. SMF was quantified using an external calibration line that was linear in the concentration range of 1.0 nM (4 fmol/injection) to 2,500 (10 pmol/injection) SMF (r ^2 ≥ 0.99). Data acquisition and handling were performed with MassLynx 4.1 software (Waters). The limit of detection (LOD) for this technique of 2.5 nM SMF has been reported (Monien et al. [2009]). In the current study, this corresponds to 10 fmol SMF per injection or a reaction rate of 0.5 pmol SMF/mg/min.
# hSULT1C1 = target: T2, hSULT1C1 (Homo sapiens, UniProt O00338)
# T2 construct: made in house; host or cells: Salmonella typhimurium TA1538 (cytosolic fraction, not purified)
# Procedure: as §1, §2, §3
# hSULT2B1b = target: T3, hSULT2B1b (Homo sapiens, UniProt O00204)
# T3 construct: made in house; host or cells: Salmonella typhimurium TA1538 (cytosolic fraction, not purified)
# T3 sequence (O00204 1-365): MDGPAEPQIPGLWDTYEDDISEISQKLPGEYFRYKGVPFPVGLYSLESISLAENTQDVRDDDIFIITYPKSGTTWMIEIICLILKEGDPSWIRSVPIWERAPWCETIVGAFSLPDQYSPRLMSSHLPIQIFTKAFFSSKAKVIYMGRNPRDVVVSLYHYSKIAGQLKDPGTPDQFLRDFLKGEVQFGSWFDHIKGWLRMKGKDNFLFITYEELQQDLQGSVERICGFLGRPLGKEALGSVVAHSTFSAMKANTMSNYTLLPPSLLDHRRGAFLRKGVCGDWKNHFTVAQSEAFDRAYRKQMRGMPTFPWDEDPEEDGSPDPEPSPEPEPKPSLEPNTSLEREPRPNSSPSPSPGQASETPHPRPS
# Procedure: as §1, §2, §3
# hSULT1C3 = target: T4, hSULT1C3 (Homo sapiens, UniProt Q6IMI6)
# T4 construct: made in house; host or cells: Salmonella typhimurium TA1538 (cytosolic fraction, not purified)
# Procedure: as §1, §2, §3
# mSult1b1 = target: T5, mSult1b1 (Mus musculus, UniProt Q9QWG7)
# T5 construct: made in house; host or cells: Salmonella typhimurium TA1538 (cytosolic fraction, enzyme not purified)
# Procedure: as §1, §2, §3
# mSult1e1 = target: T6, mSult1e1 (Mus musculus, UniProt P49891)
# T6 construct: made in house; host or cells: Salmonella typhimurium TA1538 (cytosolic fraction, enzyme not purified)
# T6 sequence (P49891 1-295): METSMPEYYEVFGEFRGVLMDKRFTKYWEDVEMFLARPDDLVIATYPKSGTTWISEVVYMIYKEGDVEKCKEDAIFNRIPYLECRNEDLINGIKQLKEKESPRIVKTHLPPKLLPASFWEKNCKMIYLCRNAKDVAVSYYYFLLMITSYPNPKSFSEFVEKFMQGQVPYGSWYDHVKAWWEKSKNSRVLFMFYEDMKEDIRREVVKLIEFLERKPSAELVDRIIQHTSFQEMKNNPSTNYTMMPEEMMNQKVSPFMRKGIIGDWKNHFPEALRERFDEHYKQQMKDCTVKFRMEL
# Procedure: as §1, §2, §3
# [1] = HMF sulfoconjugation, Michaelis-Menten fit
# T5 sequence (Q9QWG7 whole entry): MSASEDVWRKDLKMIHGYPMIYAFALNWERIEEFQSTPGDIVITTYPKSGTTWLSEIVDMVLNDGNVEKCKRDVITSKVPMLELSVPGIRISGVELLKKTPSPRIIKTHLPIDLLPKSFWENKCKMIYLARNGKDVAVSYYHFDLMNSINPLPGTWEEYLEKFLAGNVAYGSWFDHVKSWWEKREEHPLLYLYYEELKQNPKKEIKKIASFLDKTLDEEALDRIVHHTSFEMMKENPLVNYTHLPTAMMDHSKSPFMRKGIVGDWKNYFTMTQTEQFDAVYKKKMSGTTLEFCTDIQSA
# T1 sequence (P52840 whole entry): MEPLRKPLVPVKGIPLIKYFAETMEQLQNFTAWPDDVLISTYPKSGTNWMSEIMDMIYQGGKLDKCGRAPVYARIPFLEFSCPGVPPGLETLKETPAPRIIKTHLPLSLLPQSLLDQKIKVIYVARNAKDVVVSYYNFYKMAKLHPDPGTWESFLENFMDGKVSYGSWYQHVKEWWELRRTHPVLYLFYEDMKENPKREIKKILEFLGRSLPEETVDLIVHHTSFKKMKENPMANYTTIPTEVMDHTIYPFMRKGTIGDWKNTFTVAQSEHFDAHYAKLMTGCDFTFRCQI
# T4 sequence (Q6IMI6 whole entry): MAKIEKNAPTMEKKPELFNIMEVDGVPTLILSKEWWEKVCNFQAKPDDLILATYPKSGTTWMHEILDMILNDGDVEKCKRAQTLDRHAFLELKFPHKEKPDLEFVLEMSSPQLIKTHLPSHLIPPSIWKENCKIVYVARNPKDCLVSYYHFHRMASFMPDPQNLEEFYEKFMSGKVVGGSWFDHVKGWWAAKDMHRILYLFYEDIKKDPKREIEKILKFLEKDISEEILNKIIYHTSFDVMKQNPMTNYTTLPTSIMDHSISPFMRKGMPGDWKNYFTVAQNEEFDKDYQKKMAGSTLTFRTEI
# T2 sequence (O00338 whole entry): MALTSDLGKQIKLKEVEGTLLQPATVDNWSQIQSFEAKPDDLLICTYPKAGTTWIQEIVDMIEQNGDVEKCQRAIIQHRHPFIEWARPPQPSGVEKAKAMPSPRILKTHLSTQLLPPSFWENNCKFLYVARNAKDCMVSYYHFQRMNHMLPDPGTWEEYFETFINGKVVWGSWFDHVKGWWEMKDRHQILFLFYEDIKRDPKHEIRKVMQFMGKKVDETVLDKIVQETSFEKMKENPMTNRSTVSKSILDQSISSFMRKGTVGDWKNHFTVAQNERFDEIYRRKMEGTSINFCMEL
structure (smiles),measurement,setting,value
"O=Cc1ccc(CO)o1 [HMF, 5-Hydroxymethylfurfural]",Rate of sulfoconjugation,mSult1a1; 0.1 mM HMF,76.6 ± 14.4 pmol/mg/min
same,Rate of sulfoconjugation,mSult1a1; 1 mM HMF,722 ± 93 pmol/mg/min
same,Rate of sulfoconjugation,mSult1a1; 10 mM HMF,"2,010 ± 210 pmol/mg/min"
same,Rate of sulfoconjugation,mSult1a1; 100 mM HMF,"1,970 ± 70 pmol/mg/min"
same,K M,mSult1a1; [1],2.0 ± 0.3 mM
same,Rate of sulfoconjugation,hSULT1C1; 0.1 mM HMF,<0.5 pmol/mg/min
same,Rate of sulfoconjugation,hSULT1C1; 1 mM HMF,<0.5 pmol/mg/min
same,Rate of sulfoconjugation,hSULT1C1; 10 mM HMF,4.7 ± 0.3 pmol/mg/min
same,Rate of sulfoconjugation,hSULT1C1; 100 mM HMF,11.0 ± 1.4 pmol/mg/min
same,Rate of sulfoconjugation,hSULT2B1b; 0.1 mM HMF,<0.5 pmol/mg/min
same,Rate of sulfoconjugation,hSULT2B1b; 1 mM HMF,<0.5 pmol/mg/min
same,Rate of sulfoconjugation,hSULT2B1b; 10 mM HMF,<0.5 pmol/mg/min
same,Rate of sulfoconjugation,hSULT2B1b; 100 mM HMF,<0.5 pmol/mg/min
same,Rate of sulfoconjugation,hSULT1C3; 0.1 mM HMF,<0.5 pmol/mg/min
same,Rate of sulfoconjugation,hSULT1C3; 1 mM HMF,1.0 ± 0.1 pmol/mg/min
same,Rate of sulfoconjugation,hSULT1C3; 10 mM HMF,7.2 ± 0.9 pmol/mg/min
same,Rate of sulfoconjugation,hSULT1C3; 100 mM HMF,3.6 ± 0.2 pmol/mg/min
same,Rate of sulfoconjugation,mSult1b1; 0.1 mM HMF,0.9 ± 0.1 pmol/mg/min
same,Rate of sulfoconjugation,mSult1b1; 1 mM HMF,8.2 ± 0.1 pmol/mg/min
same,Rate of sulfoconjugation,mSult1b1; 10 mM HMF,66.2 ± 6.8 pmol/mg/min
same,Rate of sulfoconjugation,mSult1b1; 100 mM HMF,64.4 ± 5.0 pmol/mg/min
same,K M,mSult1b1; [1],9.5 ± 1.1 mM
same,Rate of sulfoconjugation,mSult1e1; 0.1 mM HMF,3.7 ± 0.3 pmol/mg/min
same,Rate of sulfoconjugation,mSult1e1; 1 mM HMF,35.5 ± 2.6 pmol/mg/min
same,Rate of sulfoconjugation,mSult1e1; 10 mM HMF,226 ± 9 pmol/mg/min
same,Rate of sulfoconjugation,mSult1e1; 100 mM HMF,534 ± 52 pmol/mg/min
